The numbers were not newly measured in patent publication US20090280177A1, “Pharmaceutical preparation for treating fibromyalgia” (priority 2006, published 2009), which cites them from elsewhere.

Structures are written as SMILES.

The test system of data set [1] is T cell-dependent antigen. As to conditions: dose-dependent manner.
The subject of data set [2] is T cell-independent antigen.
Data set [3] concerns peripheral blood-adhesive cells from chronic rheumatoid arthritis patients.
For data set [4], the system named is T cells. As to conditions: dose-dependent manner.

`O=C(O)c1cc(/N=N/c2ccc(S(=O)(=O)Nc3ccccn3)cc2)ccc1O` [salazosulfapyridine, 2-Hydroroxy-5-[4-(pyridine-2-ylsulfamoyl)phenylazo] benzoic acid]: the “immune response to a T cell-dependent antigen” value in data set [1] is on record as “suppressed”. In data set [2], the “immune response to a T cell-independent antigen” value is given as “hardly suppressed”. Moreover, the “production of IL-1 and IL-6” value in data set [3] was “suppress”. For the same compound, the IL-2 production entry in data set [4] is “suppress”.
